Experimental data as given in US20250082931A1, “Treating Gastric Cancer Using TTFields Combined with XELOX, FOLFOX or the Individual Constituents Thereof” (Novocure GmbH, priority 2019, published 2025).

Key:
[1] = tested on: AGS cells; assay: Apoptosis analysis by Annexin V / 7AAD staining; format: cell-based; details: for AnnV+ 7AAD+ cell fraction / AnnV+ 7AAD− cell fraction / AnnV− 7AAD+ cell fraction / AnnV− 7AAD− cell fraction: 72 h
Method: (§1) After 72 h of treatment the media and the cells were collected, and cytotoxicity was determined by cell counts. Cells (including cells from the media) were stained for Annexin V and 7AAD for apoptosis analysis. For the testing of the clonogenic effect, cells were seeded for colonies.
(§2) Cells were seeded on inovitro dishes and petri dishes 24 h before starting the experiments. Media containing the indicated concentration of each chemotherapy component alone or FOLFOX and control media was added to the cells and the dishes were connected to TTFields (as in SOP-BI-009) or grown in 37° C., 5% CO2 for 72 h. Each treatment included 8 repeats (8 dishes). The media was replaced every 24 h. At the end of the experiment the cells were collected, and cytotoxicity was determined by cell counts, small number of cells were seeded for colonies and the cells (including cells from the media) were stained for Annexin V and 7AAD for apoptosis analysis.
(§3) Apoptotic effect: Average of cell fraction of each marker staining (Annexin V and 7AAD) of at least 5 dishes from each treatment was calculated in Excel software. The averages from these repeats was calculated to averages and is presented in stacked bar graph using GraphPed software.

[2] = tested on: AGS cells; assay: Clonogenic effect (colonies count); format: cell-based; details: for colonies count: 72 h
Method: (§4) After 72 h of treatment the media and the cells were collected, and cytotoxicity was determined by cell counts. […] For the testing of the clonogenic effect, cells were seeded for colonies.
(§5) After 6-14 days the colonies were fixed, stained and counted to determine clonogenic effect. The overall effect was calculated by multiplying the cytotoxic effect and the clonogenic effect.
(§6) Clonogenic effect: The colonies from each well were counted using ImageJ software. Average and standard deviation of colony number of at least 5 wells from each treatment were calculated in excel software. The averages from these repeats was calculated to averages and standard errors and is presented as percent from control (no drug treatment) in XY graph of points with error bars using GraphPed software. Significant was determine by 2-way ANOVA followed Multiple comparison using GraphPed software.

[3] = tested on: AGS cells; assay: Overall effect (cytotoxic effect x clonogenic effect); format: cell-based; details: 72 h
Method: as §5
(§7) Overall effect: Each colony number was multiply in the percent of cytotoxic effect of its dish and averages and standard deviations of each treatment were calculated in Excel software. […] Significant was determine by 2-way ANOVA followed Multiple comparison using GraphPed software.

[4] = tested on: KATO III cells; assay: Apoptosis analysis by Annexin V / 7AAD staining; format: cell-based; details: for AnnV+ 7AAD+ cell fraction / AnnV+ 7AAD− cell fraction / AnnV− 7AAD+ cell fraction / AnnV− 7AAD− cell fraction: 72 h
Method: as §1, §2, §3

[5] = tested on: AGS cells
Method: (§8) During the treatment the media of all dishes was replaced every 24 h (“hours”).
(§9) After 72 h of treatment the media and the cells were collected, and cytotoxicity was determined by cell counts.
as §2
(§10) A TTFields generator (Inovitro systems) was used to apply the treatment to the cells.
(§11) Cytotoxic effect: Average and standard deviation of cell number of at least 5 dishes from each treatment was calculated in Excel software. The averages from these repeats was calculated to averages and standard error and is presented as percent from control (no drug treatment) in XY graph of points with error bars using GraphPed software. Significant was determine by 2-way ANOVA followed Multiple comparison using GraphPed software.

[6] = tested on: KATO III cells
Method: as §8, §9, §2, §10, §11

[7] = tested on: KATO III cells; assay: Clonogenic effect (colonies count); details: for colonies count: 72 h, one experiment;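 for all read-outs here: after treatment, KATO III cells were reseeded and grown 6–14 days, then colonies were fixed, stained and counted, expressed as percent of untreated (no drug) control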
Method: as §4, §5, §6

[8] = tested on: KATO III cells; assay: Overall effect (cytotoxic effect x clonogenic effect); details: 72 h, one experiment
Method: as §5, §7

[9] = tested on: AGS cells; assay: Cytotoxic effect by cell count after 72 h, with and without TTFields
Method: as §8, §9, §2, §10, §11

[10] = tested on: KATO III cells; assay: as above
Method: as §8, §9, §2, §10, §11

[11] = 0.2 uM, + TTFields 150 kHz 1.0 V/cm, one experiment
[12] = 0.2 uM, no TTFields, one experiment
[13] = 5 uM, + TTFields 150 kHz 1.0 V/cm, one experiment
[14] = 5 uM, no TTFields, one experiment
[15] = 10 uM, + TTFields 150 kHz 1.0 V/cm, one experiment
[16] = 10 uM, no TTFields, one experiment
[17] = FOLFOX experiment, 5 uM, + TTFields 150 kHz 1.0 V/cm
[18] = FOLFOX experiment, 5 uM, no TTFields
[19] = 1 uM, + TTFields 150 kHz 1.0 V/cm, one experiment
[20] = 1 uM, no TTFields, one experiment
[21] = 2.5 uM, + TTFields 150 kHz 1.6 V/cm, one experiment
[22] = 2.5 uM, no TTFields, one experiment
[23] = 5 uM, + TTFields 150 kHz 1.6 V/cm, one experiment
[24] = 10 uM, + TTFields 150 kHz 1.6 V/cm, one experiment
[25] = FOLFOX experiment, 10 uM, + TTFields 150 kHz 1.6 V/cm
[26] = FOLFOX experiment, 10 uM, no TTFields
[27] = 2.5 uM, + TTFields 150 kHz 1.6 V/cm
[28] = 5 uM, + TTFields 150 kHz 1.6 V/cm
[29] = 10 uM, + TTFields 150 kHz 1.6 V/cm

Structure (SMILES): Nc1nc2c(c(=O)[nH]1)N(C=O)C(CNc1ccc(C(=O)N[C@@H](CCC(=O)O)C(=O)O)cc1)CN2 (stereo partly drawn) [Leucovorin]
- AnnV+ 7AAD+ cell fraction [1, 11]: 5.34%
- AnnV+ 7AAD− cell fraction [1, 11]: 4.69%
- AnnV− 7AAD+ cell fraction [1, 11]: 2.18%
- AnnV− 7AAD− cell fraction [1, 11]: 87.79%
- AnnV+ 7AAD+ cell fraction [1, 12]: 2.25%
- AnnV+ 7AAD− cell fraction [1, 12]: 3.42%
- AnnV− 7AAD+ cell fraction [1, 12]: 2.19%
- AnnV− 7AAD− cell fraction [1, 12]: 92.14%
- AnnV+ 7AAD+ cell fraction [1, 13]: 5.55%
- AnnV+ 7AAD− cell fraction [1, 13]: 5.61%
- AnnV− 7AAD+ cell fraction [1, 13]: 3.04%
- AnnV− 7AAD− cell fraction [1, 13]: 85.8%
- AnnV+ 7AAD+ cell fraction [1, 14]: 2.29%
- AnnV+ 7AAD− cell fraction [1, 14]: 4.12%
- AnnV− 7AAD+ cell fraction [1, 14]: 1.02%
- AnnV− 7AAD− cell fraction [1, 14]: 92.57%
- AnnV+ 7AAD+ cell fraction [1, 15]: 3.74%
- AnnV+ 7AAD− cell fraction [1, 15]: 6.27%
- AnnV− 7AAD+ cell fraction [1, 15]: 2.72%
- AnnV− 7AAD− cell fraction [1, 15]: 87.27%
- AnnV+ 7AAD+ cell fraction [1, 16]: 2.84%
- AnnV+ 7AAD− cell fraction [1, 16]: 5.62%
- AnnV− 7AAD+ cell fraction [1, 16]: 1.01%
- AnnV− 7AAD− cell fraction [1, 16]: 90.54%
- AnnV+ 7AAD+ cell fraction [1, 17]: 10.2%
- AnnV+ 7AAD− cell fraction [1, 17]: 6.6%
- AnnV− 7AAD+ cell fraction [1, 17]: 2.4%
- AnnV− 7AAD− cell fraction [1, 17]: 80.7%
- AnnV+ 7AAD+ cell fraction [1, 18]: 4.3%
- AnnV+ 7AAD− cell fraction [1, 18]: 5.3%
- AnnV− 7AAD+ cell fraction [1, 18]: 2.6%
- AnnV− 7AAD− cell fraction [1, 18]: 87.7%
- apoptotic effect of drug alone ([1]; without TTFields): does not show
- colonies count [2, 11]: 70 % from control
- colonies count [2, 12]: 88 % from control
- colonies count [2, 19]: 77 % from control
- colonies count [2, 20]: 87 % from control
- colonies count [2, 13]: 70 % from control
- colonies count [2, 14]: 95 % from control
- colonies count [2, 17]: 69 % from control
- colonies count [2, 18]: 103 % from control
- clonogenic effect of drug alone ([2]; without TTFields): does not show
- overall effect (colonies count multiplying the cytotoxic effect) [3, 11]: 42.9 % from control
- overall effect (colonies count multiplying the cytotoxic effect) [3, 12]: 86.6 % from control
- overall effect (colonies count multiplying the cytotoxic effect) [3, 19]: 36.7 % from control
- overall effect (colonies count multiplying the cytotoxic effect) [3, 20]: 89.7 % from control
- overall effect (colonies count multiplying the cytotoxic effect) [3, 13]: 41.7 % from control
- overall effect (colonies count multiplying the cytotoxic effect) [3, 14]: 88.8 % from control
- overall effect (colonies count multiplying the cytotoxic effect) [3, 17]: 41 % from control
- overall effect (colonies count multiplying the cytotoxic effect) [3, 18]: 88 % from control
- AnnV+ 7AAD+ cell fraction [4, 21]: 18.45%
- AnnV+ 7AAD− cell fraction [4, 21]: 39.43%
- AnnV− 7AAD+ cell fraction [4, 21]: 0.3%
- AnnV− 7AAD− cell fraction [4, 21]: 41.82%
- AnnV+ 7AAD+ cell fraction [4, 22]: 8.51%
- AnnV+ 7AAD− cell fraction [4, 22]: 24.86%
- AnnV− 7AAD+ cell fraction [4, 22]: 0.06%
- AnnV− 7AAD− cell fraction [4, 22]: 66.57%
- AnnV+ 7AAD+ cell fraction [4, 23]: 25.55%
- AnnV+ 7AAD− cell fraction [4, 23]: 36.56%
- AnnV− 7AAD+ cell fraction [4, 23]: 0.2%
- AnnV− 7AAD− cell fraction [4, 23]: 37.69%
- AnnV+ 7AAD+ cell fraction [4, 14]: 9.4%
- AnnV+ 7AAD− cell fraction [4, 14]: 36.5%
- AnnV− 7AAD+ cell fraction [4, 14]: 0.12%
- AnnV− 7AAD− cell fraction [4, 14]: 53.98%
- AnnV+ 7AAD+ cell fraction [4, 24]: 28.48%
- AnnV+ 7AAD− cell fraction [4, 24]: 35.82%
- AnnV− 7AAD+ cell fraction [4, 24]: 0.4%
- AnnV− 7AAD− cell fraction [4, 24]: 35.3%
- AnnV+ 7AAD+ cell fraction [4, 16]: 12.64%
- AnnV+ 7AAD− cell fraction [4, 16]: 39.85%
- AnnV− 7AAD+ cell fraction [4, 16]: 1.01%
- AnnV− 7AAD− cell fraction [4, 16]: 46.5%
- AnnV+ 7AAD+ cell fraction [4, 25]: 33.83%
- AnnV+ 7AAD− cell fraction [4, 25]: 18.24%
- AnnV− 7AAD+ cell fraction [4, 25]: 1.32%
- AnnV− 7AAD− cell fraction [4, 25]: 46.62%
- AnnV+ 7AAD+ cell fraction [4, 26]: 24.39%
- AnnV+ 7AAD− cell fraction [4, 26]: 12.36%
- AnnV− 7AAD+ cell fraction [4, 26]: 0.80%
- AnnV− 7AAD− cell fraction [4, 26]: 62.46%
- apoptotic effect of drug alone ([4]; without TTFields): does not show
- cytotoxic effect of drug alone [5]: does not show
- cytotoxic effect of drug alone [6]: does not show
- colonies count [7, 27]: 60 % from control
- colonies count ([7]; 2.5 uM, no TTFields): 100 % from control
- colonies count [7, 28]: 68 % from control
- colonies count ([7]; 5 uM, no TTFields): 79 % from control
- colonies count [7, 29]: 62 % from control
- colonies count ([7]; 10 uM, no TTFields): 91 % from control
- clonogenic effect of drug alone ([7]; without TTFields): does not show
- overall effect (colonies count multiplying the cytotoxic effect) [8, 27]: 32 % from control
- overall effect (colonies count multiplying the cytotoxic effect) ([8]; 2.5 uM, no TTFields): 106 % from control
- overall effect (colonies count multiplying the cytotoxic effect) [8, 28]: 35 % from control
- overall effect (colonies count multiplying the cytotoxic effect) ([8]; 5 uM, no TTFields): 81 % from control
- overall effect (colonies count multiplying the cytotoxic effect) [8, 29]: 27 % from control
- overall effect (colonies count multiplying the cytotoxic effect) ([8]; 10 uM, no TTFields): 78 % from control
- cell count ([9]; 0.2 uM, + TTFields 150 kHz 1.0 V/cm): 44 % from control
- cell count ([9]; 0.2 uM, no TTFields): 88 % from control
- cell count ([9]; 1 uM, + TTFields 150 kHz 1.0 V/cm): 46.5 % from control
- cell count ([9]; 1 uM, no TTFields): 84 % from control
- cell count ([9]; 5 uM, + TTFields 150 kHz 1.0 V/cm): 45 % from control
- cell count ([9]; 5 uM, no TTFields): 77 % from control
- cell count [9, 17]: 59 % from control
- cell count [9, 18]: 83 % from control
- cell count [10, 21]: 58 % from control
- cell count [10, 22]: 106 % from control
- cell count [10, 23]: 51 % from control
- cell count [10, 14]: 107 % from control
- cell count [10, 24]: 47 % from control
- cell count [10, 16]: 90 % from control
- cell count ([10]; FOLFOX experiment, 5 uM, + TTFields 150 kHz 1.6 V/cm): 49 % from control
- cell count [10, 18]: 102 % from control
